Measured values as given in patent publication US8551526B2, “Preparation of drug particles using evaporation precipitation into aqueous solutions” (Board of Regents, The University of Texas System, priority 2000, dated 2013).
“And” between values parts separate entries of the source, which are not always exact repeats. Equal entries are not always repeated.

Columns and labels:
Type in all cases: physicochemical
[1] = X-ray diffraction of danazol dry powders
Experimental: (§1) Two percent (2%) w/v danazol solution in dichloromethane was sprayed at a flow rate of 1 ml/min into 100 ml aqueous solution containing 1% w/v excipient or a excipient mixture at 1:1 w/w ratio, if two surfactants were used, to stabilize the drug particles. The temperatures of both heating jacket and water bath were 80° C. and the pressure drop was 3500-4000 psi. After 25 minutes spray, a suspension with drug to excipient ratio of 0.5 was recovered and the particle size of the danazol particles was measured with Malvern Mastersizer-S. The suspensions were centrifuged (BECKMAN, Model TJ-6, USA) at 3000 rpm for 30 mins. The supernatants were poured out and the precipitates were placed into a vacuum oven and dried at 40° C., and −30 in Hg for 3-4 hrs. The crystallinity of the dry powders was examined by x-ray diffraction (PW1720, PHILIPS). The surface area of the dry powders was measured with a high-speed surface area BET analyzer (NOVA 2000, Quantachrome Instruments, USA).
X-ray diffraction was used to analyze the crystallinity of the dry powders. […] The a-peak heights of danazol in different excipient systems at 2θ=15° are listed in Table N. The reduction in crystallinity was less than 20% after correction for the presence of 10% w/w excipient. It was assumed that the danazol peak height was linear in concentration for a fixed weight. […]

[2] = Particle size distribution by static light scattering (Malvern Mastersizer-S) and redispersibility; settings: after centrifugation and vacuum drying
Text: The organic danazol solution was fed by an HPLC pump through a 3 m long 1/16 in. o.d.×0.030 in. i.d. stainless steel coiled tube contained within a 1½″ OD×24″ long plastic water jacket (Alltech). Water was circulated through the jacket with a JULABO MP temperature controller. The organic solution was atomized through an unheated insulated adjustable restrictor (5 mm dia.×136 mm long, ISCO, USA) into hot water. Atomization was achieved by adjusting the nozzle valve manually to maintain a pressure drop to about 3500 psi. The aqueous stabilizing solution was contained in a 250 ml plastic submerged in a temperature-controlled water bath. The nozzle was submerged approximately 10 cm under the surface of the aqueous solution. […] After spraying for a required time to produce the desired drug/excipient ratio, the suspension was recovered and analyzed within 30 mins to determine the particle size by light scattering with a Malvern Mastersizer-S (Malvern Instruments Ltd., U. K.).
Two percent (2%) w/v danazol solution in dichloromethane was sprayed at a flow rate of 1 ml/min into 100 ml aqueous solution containing 1% w/v excipient or a excipient mixture at 1:1 w/w ratio, if two surfactants were used, to stabilize the drug particles. […] The surface area of the dry powders was measured with a high-speed surface area BET analyzer (NOVA 2000, Quantachrome Instruments, USA). […]

[3] = Contact angle of water on compressed dry powder tablet; settings: distilled water drop on compressed tablet
Experimental: […] was filled into a 0.7 cm diameter flat faced die and compressed with a Carver Laboratory Press (Model M, Fred S. Carver Inc, WIS, USA) at 1500 kgf into a tablet. A drop of […] distilled water was placed on the surface of the tablet and contact angle was measured from the tangential angle of the water drop with help of a camera (Panasonic WV-1410, Philippines).

[4] = BET surface area of danazol dry powders
Experimental: as §1

C#C[C@]1(O)CC[C@H]2[C@@H]3CCC4=Cc5oncc5C[C@]4(C)[C@H]3CC[C@@]21C [Bulk danazol, danazol]
Peak height of danazol x-ray diffraction at 2θ = 15° [1]: 3182 counts
D (v, 0.5) redispersed dry powders ([2]; cell marked (30s)): 21.07 (30s) μm
D (v, 0.5) redispersed dry powders w/o ultrasonic ([2]; redispersed in distilled water): 29.63 μm
Contact angle of dry powder after centrifugation and drying [3]: 61.5 ° and 61.0 °
Surface Area of the dry powder [4]: 0.52 m^2/g
